# Patent US20230241257A1, “BIOTIN-MODIFIED DIMER AND USE THEREOF” (THE UNIVERSITY OF TOKYO, priority 2020, published 2023)
# What was measured:
# Type in all cases: in vivo, mice (BALB/cSlc nu/nu)
# [1] = test system: human stomach cancer cells (MKN-45); assay: Experiment 8: therapeutic effects and toxicity of Cupid-scFv antibody (24 h before)+^211At-psyche-BR in MKN-45 cancer-bearing mouse models; conditions: for general states and body weight: Day 5, urgent euthanasia
# Procedure: The present experiment used human stomach cancer cells (MKN-45) expressing carcinoembryonic antigen (CEA). 9-week-old male immunodeficient mice (BALB/cSlc nu/nu) were used. MKN-45 cells (5×10^6/0.1 ml) were transplanted into the mice's subcutis on the right shoulder dorsal side to produce cancer-bearing mouse models. At the time point in which the tumor volume became a predetermined size (on Day 8 after the transplantation), the mice were divided into seven groups, which were for use in the evaluation of the therapeutic effects, and a biodistribution group (6 hours) of cancer-bearing mouse models having this tumor size. The Cupid-scFv antibody was administered 100 μmol/0.1 ml via the caudal vein of each mouse. Twenty-four hours after administration of the Cupid-scFv antibody, ^211At-psyche-BR was administered via the caudal vein of each mouse in an amount of 5.55 MBq, 3.70 MBq, 1.85 MBq, 1.11 MBq, or 0.37 MBq.
# To a control group, a solvent for the ^211At-psyche-BR was administered (solvent group). A group to which only cupid was administered was defined as a Cupid group. The mice's general states were observed and recorded immediately after administration of the ^211At-psyche-BR and at 3 hours after the administration. Moreover, until Day 14, after administration of the ^211At-psyche-BR, observation of the general states and the measurement of the body weight was carried out every day. After Day 14 of the administration of the ^211At-psyche-BR, observation of the general states and the measurement of the body weight was carried out every other day. The tumor size was measured every other day after the treatment with the ^211At-psyche-BR. On Day 36, after the treatment with the ^211At-psyche-BR, observation of the general states, the measurement of the body weight, and the measurement of the tumor size were carried out, and the mice were then euthanized by collecting whole blood from the heart of each mouse under isoflurane anesthesia. Tumor tissues and major tissues/organs were excised from the mice, weighed, and immobilized with formalin.
# [2] = test system: human stomach cancer cells (MKN-45); assay: Experiment 9: pharmacokinetics (6 h) of Cupid-scFv antibody (24 h before)+^211At-psyche-BR in MKN-45 cancer-bearing mouse models; conditions: six hours after administration, tumor on Day 8 after transplantation
# Procedure: (§1) The present experiment used human stomach cancer cells (MKN-45) expressing carcinoembryonic antigen (CEA). 9-week-old male immunodeficient mice (BALB/cSlc nu/nu) were used. MKN-45 cells (1×10^7/0.1 ml) were transplanted into the mice's subcutis on the right shoulder dorsal side to produce cancer-bearing mouse models. When the tumor volume became a predetermined size (on Day 8 after the transplantation), the Cupid-scFv antibody was administered 100 μmol/0.1 ml via the caudal vein of each mouse. Twenty-four hours after administration of the Cupid-scFv antibody, ^211At-psyche-BR (about 0.30 MBq/100 ml) was administered via the caudal vein of each mouse. […] After that, the weights of blood, plasma, urine, tumor, and normal tissues/organs were measured, and the radioactivity thereof was then measured using a γ counter. The amounts of the ^211At-psyche-BR (radioactivity) accumulated in the blood, plasma, urine, tumor, and normal tissues/organs were calculated. […] Regarding accumulation of the ^211At-psyche-BR in the thyroid gland, since the weight of the thyroid gland could not be precisely measured, it was shown that the rate (% ID) of the ^211At-psyche-BR accumulated in the thyroid gland in the administered ^211At-psyche-BR.
# [3] = test system: human stomach cancer cells (MKN-45); assay: Experiment 11: pharmacokinetics (6 h) of Cupid-scFv antibody (24 h before)+^211At-psyche-B in MKN-45 cancer-bearing mouse models; conditions: six hours after administration, tumor on Day 8 after transplantation
# Procedure: as §1, with “^211At-psyche-B” for “^211At-psyche-BR”, “^211At-psyche-B.” for “^211At-psyche-BR.”
SMILES,general states and body weight changes ([1]; 0.37 MBq),"tumor growth compared with the control group ([1]; 0.37 MBq, until Day 10)",general states and body weight changes ([1]; 1.11 MBq),"tumor growth compared with the control group ([1]; 1.11 MBq, until Day 10)","tumor growth compared with the control group ([1]; 1.85, 1.11 and 0.37 MBq, after Day 10)","tumor growth compared with the control group ([1]; 1.85 MBq, until Day 10)",general states and body weight ([1]; 3.70 MBq),general states and body weight ([1]; 5.55 MBq),Accumulation in the tumor [2] [% ID/g],Accumulation in the tumor [3] [% ID/g]
N=C1N[C@H]2[C@H](CS[C@H]2CCCCNC(=O)CCCCCC(=O)Nc2cc(NC(=O)CCCCCC(=O)NCCCC[C@@H]3SC[C@@H]4NC(=N)N[C@@H]43)cc(C(=O)NCCOCCOCCNC(=O)c3cccc([211At])c3)c2)N1 [^211At-psyche-BR],almost the same levels as in the control group,tumor growth was suppressed,almost the same levels as in the control group,tumor growth was suppressed,the tumor growth was suppressed in an amount-dependent manner,tumor growth was suppressed,general states and body weight reduction became severe,general states and body weight reduction became severe,31.0±3.4,
N=C1N[C@H]2[C@H](CS[C@H]2CCCCC(=O)NCCCCCC(=O)Nc2cc(NC(=O)CCCCCNC(=O)CCCC[C@@H]3SC[C@@H]4NC(=N)N[C@@H]43)cc(C(=O)NCCOCCOCCNC(=O)c3cccc([211At])c3)c2)N1 [^211At-psyche-B],,,,,,,,,,25.8±1.5
